What all share (test): relative viability (nuclei count vs DMSO), 5 days (fraction); higher = more cells survive
Compound in experiment [1]: C[C@@H]1CN(CC(=O)Nc2ccc3c(c2)Cc2cccc(-c4cc(=O)cc(N5CCOCC5)o4)c2S3)C[C@H](C)O1
Summed up:
(§1)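 Lung cancer cell lines in 1536-well plates were exposed by pinning to five library-drug doses (not always all listed) √10 apart, following an overnight hold at 37 °C. MetaXpress counted Hoechst-stained nuclei from 4× images taken after 5 days without medium change. Viability is the median ratio of treated-well to vehicle-well nuclei across plates. Plates required control CV below 25% and at least one doubling.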

Compound in a further experiment: CCCCCCCCCCCC1=C(O)C(=O)C=C(O)C1=O [Embelin]
Summed up:
as §1

Compound in a further experiment: CC(C)S(=O)(=O)C1=CC=CC=C1NC2=NC(=NC(=C2Cl)N)NC3=C(C=C(C=C3)N4CCC(CC4)C(=O)N)OC [HG-5-88-01]
Summed up:
as §1

Compound in the next experiment: Clc1ccc(Nc2nnc(Cc3ccncc3)c3ccccc23)cc1 [Vatalanib]
Summed up: as §1

Compound in the next experiment: CC(C)Oc1cc(Nc2nc(N[C@@H](C)c3ccc(F)cn3)ncc2Cl)n[nH]1 [AZ23]
Summed up:
as §1

As to NCI-H1793, the relative viability is 1.01 in experiment [1] (0.04 µM); 0.866 in experiment [1] (0.1265 µM); 1.05 in experiment [1] (0.4 µM); 0.581 in experiment [1] (4 µM); 0.918 with Embelin (0.08 µM); 1.08 with Embelin (0.8 µM). Further, the relative viability with Embelin (2.53 µM) amounted to 1.06; with Embelin (8 µM), 0.431; with HG-5-88-01 (0.1265 µM), 0.942; with HG-5-88-01 (0.4 µM), 0.985; with HG-5-88-01 (1.265 µM), 0.668; with HG-5-88-01 (4 µM) it was 0.792. The relative viability came to 0.902 with Vatalanib (0.04 µM); 0.879 in the experiment with Vatalanib (0.1265 µM); 1.07 with Vatalanib (0.4 µM); 0.839 with Vatalanib (1.265 µM); 0.774 with Vatalanib (4 µM); 1.1 in the experiment with AZ23 (0.01 µM). In addition, the relative viability in the experiment with AZ23 (0.03162 µM) and with AZ23 (0.3162 µM) was 1.07 each time.

As to NCI-H1563, the relative viability in experiment [1] (0.04 µM) worked out at 0.947; in experiment [1] (0.1265 µM), 0.901; in experiment [1] (0.4 µM), 0.941; in experiment [1] (4 µM) it was 0.935; in the experiment with Embelin (0.08 µM), 0.946; with Embelin (0.8 µM), 1.17. For the same cell line, the relative viability turned out to be 0.978 with Embelin (2.53 µM); 0.978 in the experiment with Embelin (8 µM); 1.02 with HG-5-88-01 (0.04 µM); 0.932 with HG-5-88-01 (0.1265 µM); 0.974 with HG-5-88-01 (0.4 µM); 0.811 with HG-5-88-01 (1.265 µM). In addition, the relative viability came to 1.19 in the experiment with HG-5-88-01 (4 µM); 1.04 with Vatalanib (0.04 µM); 0.889 in the experiment with Vatalanib (0.1265 µM); 1.03 with Vatalanib (0.4 µM); 0.918 in the experiment with Vatalanib (1.265 µM); 0.937 in the experiment with Vatalanib (4 µM). Moreover, the relative viability with AZ23 (0.01 µM) was determined as 1.06; with AZ23 (0.03162 µM), 1.02; with AZ23 (0.3162 µM) it was 0.967.

NCI-H1993: the relative viability was found to be 1.07 in experiment [1] (0.04 µM); 0.96 in experiment [1] (0.1265 µM); 0.761 in experiment [1] (0.4 µM); 0.938 in experiment [1] (4 µM); 1.05 with Embelin (0.08 µM); 0.888 with Embelin (0.8 µM). Moreover, the relative viability with Embelin (2.53 µM) came to 1.05; in the experiment with Embelin (8 µM) it was 0.843; with HG-5-88-01 (0.04 µM) it was 0.879; with HG-5-88-01 (0.1265 µM), 0.998; with HG-5-88-01 (0.4 µM) it was 0.9; with HG-5-88-01 (1.265 µM), 0.611. In addition, the relative viability amounted to 0.861 with HG-5-88-01 (4 µM); 0.818 in the experiment with Vatalanib (0.04 µM); 0.871 with Vatalanib (0.1265 µM); 0.923 with Vatalanib (0.4 µM); 0.748 with Vatalanib (1.265 µM); 0.815 in the experiment with Vatalanib (4 µM). Moreover, the relative viability in the experiment with AZ23 (0.01 µM) came to 0.926; with AZ23 (0.03162 µM) it was 0.834; with AZ23 (0.3162 µM), 0.991.
